# Measured values published in ChEMBL document CHEMBL4138236, “Trisubstituted barbiturates and thiobarbiturates: Synthesis and biological evaluation as xanthine oxidase inhibitors, antioxidants, antibacterial and anti-proliferative agents” (Eur J Med Chem, 2018).
# System: not listed separately
# Test: Antioxidant activity assessed as DPPH radical scavenging activity at 30 uM after 20 mins by spectrophotometric method relative to control
# Format: functional
# Details: not given
row,SMILES,Activity [%]
1,CN1C(=O)C(=Cc2ccccc2[N+](=O)[O-])C(=O)N(C)C1=O,-0.8
2,CC(NNc1ccc([N+](=O)[O-])cc1[N+](=O)[O-])=C1C(=O)N(C)C(=O)N(C)C1=O,28
3,NC(S)=NC=C1C(=O)NC(=O)NC1=O,6.73
4,NC(=S)NC=C1C(=O)N(c2ccccc2)C(=S)N(c2ccccc2)C1=O,23.1
5,CC(=O)C1C(=O)N(c2ccccc2)C(=S)N(c2ccccc2)C1=O,-8.55
6,Cn1c([O-])c(C(C#N)c2ccc(Br)cc2)c(=O)n(C)c1=O.[Na+] (stereo not drawn),0.45
7,O=C1NC(=O)C(=Cc2ccccc2[N+](=O)[O-])C(=O)N1,-0.9
8,O=C1C(=Cc2ccccc2[N+](=O)[O-])C(=O)N(c2ccccc2)C(=S)N1c1ccccc1,9

# System: not listed separately
# Test: Antioxidant activity assessed as DPPH radical scavenging activity at 30 uM after 60 mins by spectrophotometric method relative to control
# Format: functional
# Details: not given
row,SMILES,Activity [%]
1,CN1C(=O)C(=Cc2ccccc2[N+](=O)[O-])C(=O)N(C)C1=O,-1.77
2,CC(NNc1ccc([N+](=O)[O-])cc1[N+](=O)[O-])=C1C(=O)N(C)C(=O)N(C)C1=O,26.7
3,NC(S)=NC=C1C(=O)NC(=O)NC1=O,16.6
4,NC(=S)NC=C1C(=O)N(c2ccccc2)C(=S)N(c2ccccc2)C1=O,32
5,CC(=O)C1C(=O)N(c2ccccc2)C(=S)N(c2ccccc2)C1=O,-7.43
6,Cn1c([O-])c(C(C#N)c2ccc(Br)cc2)c(=O)n(C)c1=O.[Na+] (stereo not drawn),1.2
7,O=C1NC(=O)C(=Cc2ccccc2[N+](=O)[O-])C(=O)N1,-0.78
8,O=C1C(=Cc2ccccc2[N+](=O)[O-])C(=O)N(c2ccccc2)C(=S)N1c1ccccc1,11.3

# System: MCF7
# Test: Antiproliferative activity against human MCF7 cells at 30 uM after 72 hrs by MTT assay relative to control
# Format: functional
# Details: not given
row,SMILES,Activity [%]
1,CN1C(=O)C(=Cc2ccccc2[N+](=O)[O-])C(=O)N(C)C1=O,54.64
2,CC(NNc1ccc([N+](=O)[O-])cc1[N+](=O)[O-])=C1C(=O)N(C)C(=O)N(C)C1=O,69.95
3,NC(S)=NC=C1C(=O)NC(=O)NC1=O,71.09
4,NC(=S)NC=C1C(=O)N(c2ccccc2)C(=S)N(c2ccccc2)C1=O,90.04
5,CC(=O)C1C(=O)N(c2ccccc2)C(=S)N(c2ccccc2)C1=O,75.32
6,Cn1c([O-])c(C(C#N)c2ccc(Br)cc2)c(=O)n(C)c1=O.[Na+] (stereo not drawn),79.47
7,O=C1NC(=O)C(=Cc2ccccc2[N+](=O)[O-])C(=O)N1,58.88
8,O=C1C(=Cc2ccccc2[N+](=O)[O-])C(=O)N(c2ccccc2)C(=S)N1c1ccccc1,67.93

# System: NHDF
# Test: Antiproliferative activity against NHDF at 30 uM after 72 hrs by MTT assay relative to control
# Format: cell-based
# Details: human
row,SMILES,Activity [%]
1,CN1C(=O)C(=Cc2ccccc2[N+](=O)[O-])C(=O)N(C)C1=O,79.11
2,CC(NNc1ccc([N+](=O)[O-])cc1[N+](=O)[O-])=C1C(=O)N(C)C(=O)N(C)C1=O,73.63
3,NC(S)=NC=C1C(=O)NC(=O)NC1=O,78.05
4,NC(=S)NC=C1C(=O)N(c2ccccc2)C(=S)N(c2ccccc2)C1=O,95.17
5,CC(=O)C1C(=O)N(c2ccccc2)C(=S)N(c2ccccc2)C1=O,89.63
6,Cn1c([O-])c(C(C#N)c2ccc(Br)cc2)c(=O)n(C)c1=O.[Na+] (stereo not drawn),80.09
7,O=C1NC(=O)C(=Cc2ccccc2[N+](=O)[O-])C(=O)N1,72.88
8,O=C1C(=Cc2ccccc2[N+](=O)[O-])C(=O)N(c2ccccc2)C(=S)N1c1ccccc1,77.56

# System: Bacillus cereus
# Test: Antibacterial activity against Bacillus cereus ATCC 1178 after 24 hrs by broth microdilution method
# Format: functional
# Details: ATCC 1178, 24 h
row,SMILES,MIC [µM]
1,CN1C(=O)C(=Cc2ccccc2[N+](=O)[O-])C(=O)N(C)C1=O,> 200
2,CC(NNc1ccc([N+](=O)[O-])cc1[N+](=O)[O-])=C1C(=O)N(C)C(=O)N(C)C1=O,> 200
3,NC(S)=NC=C1C(=O)NC(=O)NC1=O,> 200
4,NC(=S)NC=C1C(=O)N(c2ccccc2)C(=S)N(c2ccccc2)C1=O,> 200
5,CC(=O)C1C(=O)N(c2ccccc2)C(=S)N(c2ccccc2)C1=O,> 200
6,Cn1c([O-])c(C(C#N)c2ccc(Br)cc2)c(=O)n(C)c1=O.[Na+] (stereo not drawn),> 200
7,O=C1NC(=O)C(=Cc2ccccc2[N+](=O)[O-])C(=O)N1,> 200
8,O=C1C(=Cc2ccccc2[N+](=O)[O-])C(=O)N(c2ccccc2)C(=S)N1c1ccccc1,> 200

# System: Staphylococcus aureus
# Test: Antibacterial activity against Staphylococcus aureus ATCC 25923 after 24 hrs by broth microdilution method
# Format: functional
# Details: ATCC 25923, 24 h
row,SMILES,MIC [µM]
1,CN1C(=O)C(=Cc2ccccc2[N+](=O)[O-])C(=O)N(C)C1=O,> 200
2,CC(NNc1ccc([N+](=O)[O-])cc1[N+](=O)[O-])=C1C(=O)N(C)C(=O)N(C)C1=O,> 200
3,NC(S)=NC=C1C(=O)NC(=O)NC1=O,> 200
4,NC(=S)NC=C1C(=O)N(c2ccccc2)C(=S)N(c2ccccc2)C1=O,> 200
5,CC(=O)C1C(=O)N(c2ccccc2)C(=S)N(c2ccccc2)C1=O,> 200
6,Cn1c([O-])c(C(C#N)c2ccc(Br)cc2)c(=O)n(C)c1=O.[Na+] (stereo not drawn),> 200
7,O=C1NC(=O)C(=Cc2ccccc2[N+](=O)[O-])C(=O)N1,> 200
8,O=C1C(=Cc2ccccc2[N+](=O)[O-])C(=O)N(c2ccccc2)C(=S)N1c1ccccc1,> 200

# System: Escherichia coli
# Test: Antibacterial activity against Escherichia coli ATCC 25922 after 24 hrs by broth microdilution method
# Format: functional
# Details: ATCC 25922, 24 h
row,SMILES,MIC [µM]
1,CN1C(=O)C(=Cc2ccccc2[N+](=O)[O-])C(=O)N(C)C1=O,> 200
2,CC(NNc1ccc([N+](=O)[O-])cc1[N+](=O)[O-])=C1C(=O)N(C)C(=O)N(C)C1=O,> 200
3,NC(S)=NC=C1C(=O)NC(=O)NC1=O,> 200
4,NC(=S)NC=C1C(=O)N(c2ccccc2)C(=S)N(c2ccccc2)C1=O,> 200
5,CC(=O)C1C(=O)N(c2ccccc2)C(=S)N(c2ccccc2)C1=O,> 200
6,Cn1c([O-])c(C(C#N)c2ccc(Br)cc2)c(=O)n(C)c1=O.[Na+] (stereo not drawn),> 200
7,O=C1NC(=O)C(=Cc2ccccc2[N+](=O)[O-])C(=O)N1,> 200
8,O=C1C(=Cc2ccccc2[N+](=O)[O-])C(=O)N(c2ccccc2)C(=S)N1c1ccccc1,> 200

# System: Klebsiella pneumoniae
# Test: Antibacterial activity against Klebsiella pneumoniae ATCC 13883 after 24 hrs by broth microdilution method
# Format: functional
# Details: ATCC 13883, 24 h
row,SMILES,MIC [µM]
1,CN1C(=O)C(=Cc2ccccc2[N+](=O)[O-])C(=O)N(C)C1=O,> 200
2,CC(NNc1ccc([N+](=O)[O-])cc1[N+](=O)[O-])=C1C(=O)N(C)C(=O)N(C)C1=O,> 200
3,NC(S)=NC=C1C(=O)NC(=O)NC1=O,> 200
4,NC(=S)NC=C1C(=O)N(c2ccccc2)C(=S)N(c2ccccc2)C1=O,> 200
5,CC(=O)C1C(=O)N(c2ccccc2)C(=S)N(c2ccccc2)C1=O,> 200
6,Cn1c([O-])c(C(C#N)c2ccc(Br)cc2)c(=O)n(C)c1=O.[Na+] (stereo not drawn),> 200
7,O=C1NC(=O)C(=Cc2ccccc2[N+](=O)[O-])C(=O)N1,> 200
8,O=C1C(=Cc2ccccc2[N+](=O)[O-])C(=O)N(c2ccccc2)C(=S)N1c1ccccc1,> 200

# System: Pseudomonas aeruginosa
# Test: Antibacterial activity against Pseudomonas aeruginosa ATCC 27853 after 24 hrs by broth microdilution method
# Format: functional
# Details: ATCC 27853, 24 h
row,SMILES,MIC [µM]
1,CN1C(=O)C(=Cc2ccccc2[N+](=O)[O-])C(=O)N(C)C1=O,> 200
2,CC(NNc1ccc([N+](=O)[O-])cc1[N+](=O)[O-])=C1C(=O)N(C)C(=O)N(C)C1=O,> 200
3,NC(S)=NC=C1C(=O)NC(=O)NC1=O,> 200
4,NC(=S)NC=C1C(=O)N(c2ccccc2)C(=S)N(c2ccccc2)C1=O,> 200
5,CC(=O)C1C(=O)N(c2ccccc2)C(=S)N(c2ccccc2)C1=O,> 200
6,Cn1c([O-])c(C(C#N)c2ccc(Br)cc2)c(=O)n(C)c1=O.[Na+] (stereo not drawn),> 200
7,O=C1NC(=O)C(=Cc2ccccc2[N+](=O)[O-])C(=O)N1,> 200
8,O=C1C(=Cc2ccccc2[N+](=O)[O-])C(=O)N(c2ccccc2)C(=S)N1c1ccccc1,> 200

# System: Salmonella typhimurium
# Test: Antibacterial activity against Salmonella typhimurium ATCC 13311 after 24 hrs by broth microdilution method
# Format: functional, Salmonella enterica subsp. enterica serovar Typhimurium
# Details: Salmonella enterica, ATCC 13311, 24 h
row,SMILES,MIC [µM]
1,CN1C(=O)C(=Cc2ccccc2[N+](=O)[O-])C(=O)N(C)C1=O,> 200
2,CC(NNc1ccc([N+](=O)[O-])cc1[N+](=O)[O-])=C1C(=O)N(C)C(=O)N(C)C1=O,> 200
3,NC(S)=NC=C1C(=O)NC(=O)NC1=O,> 200
4,NC(=S)NC=C1C(=O)N(c2ccccc2)C(=S)N(c2ccccc2)C1=O,> 200
5,CC(=O)C1C(=O)N(c2ccccc2)C(=S)N(c2ccccc2)C1=O,> 200
6,Cn1c([O-])c(C(C#N)c2ccc(Br)cc2)c(=O)n(C)c1=O.[Na+] (stereo not drawn),> 200
7,O=C1NC(=O)C(=Cc2ccccc2[N+](=O)[O-])C(=O)N1,> 200
8,O=C1C(=Cc2ccccc2[N+](=O)[O-])C(=O)N(c2ccccc2)C(=S)N1c1ccccc1,> 200

# System: Acinetobacter baumannii
# Test: Antibacterial activity against Acinetobacter baumannii LMG 1025 after 24 hrs by broth microdilution method
# Format: functional
# Details: LMG 1025, 24 h
row,SMILES,MIC [µM]
1,CN1C(=O)C(=Cc2ccccc2[N+](=O)[O-])C(=O)N(C)C1=O,> 200
2,CC(NNc1ccc([N+](=O)[O-])cc1[N+](=O)[O-])=C1C(=O)N(C)C(=O)N(C)C1=O,> 200
3,NC(S)=NC=C1C(=O)NC(=O)NC1=O,> 200
4,NC(=S)NC=C1C(=O)N(c2ccccc2)C(=S)N(c2ccccc2)C1=O,> 200
5,CC(=O)C1C(=O)N(c2ccccc2)C(=S)N(c2ccccc2)C1=O,> 200
6,Cn1c([O-])c(C(C#N)c2ccc(Br)cc2)c(=O)n(C)c1=O.[Na+] (stereo not drawn),> 200
7,O=C1NC(=O)C(=Cc2ccccc2[N+](=O)[O-])C(=O)N1,> 200
8,O=C1C(=Cc2ccccc2[N+](=O)[O-])C(=O)N(c2ccccc2)C(=S)N1c1ccccc1,> 200
